For one data set, the target named is Acetylcholinesterase (Electrophorus electricus, UniProt O42275). Nature of the data set: Inhibition of Electrophorus electricus AchE using […] as substrate incubated for 10 mins followed by substrate addition measured at 0 to 180 secs by Ellman's method.
In data set [1] the test system is PC-12. Nature of the data set: Induction of apoptosis in rat PC-12 cells assessed as late apoptotic cells at 0.1 uM preincubated for 4 hrs followed by H2O2 treatment for another 24 hrs by Annexin V and PI double staining based flow cytometric analysis (RVB = 5.46 %). Type of data set: functional. As to conditions: time 28 hrs. For orientation: A flow cytometer gives signals particle by particle.

Data set [2] deals with PC-12. Nature of the data set: Induction of apoptosis in rat PC-12 cells assessed as late apoptotic cells at 0.3 uM preincubated for 4 hrs followed by H2O2 treatment for another 24 hrs by Annexin V and PI double staining based flow cytometric analysis (RVB = 5.46 %). Format: functional. The conditions noted are these: time 28 hrs.
Data set [3] concerns PC-12. Kind of data set: Induction of apoptosis in rat PC-12 cells assessed as necrotic cells at 0.3 uM preincubated for 4 hrs followed by H2O2 treatment for another 24 hrs by Annexin V and PI double staining based flow cytometric analysis (RVB = 2.94 %). Format: functional. As to conditions: time 28 hrs.
In data set [4] the test system is PC-12. Nature of the data set: Induction of apoptosis in rat PC-12 cells assessed as late apoptotic cells at 0.5 uM preincubated for 4 hrs followed by H2O2 treatment for another 24 hrs by Annexin V and PI double staining based flow cytometric analysis (RVB = 5.46 %). Type of data set: functional. The conditions noted are these: time 28 hrs.
For data set [5], the system named is PC-12. Kind of data set: Induction of apoptosis in rat PC-12 cells assessed as necrotic cells at 0.5 uM preincubated for 4 hrs followed by H2O2 treatment for another 24 hrs by Annexin V and PI double staining based flow cytometric analysis (RVB = 2.94 %). Type of data set: functional. As to conditions: time 28 hrs.
In data set [6] the test system is PC-12. Kind of data set: Antioxidant activity in H2O2-induced oxidative stress in rat PC-12 cells assessed as increase in expression of HO-1 level preincubated for 4 hrs followed by H2O2 treatment for another 24 hrs by Western blotting analysis. The conditions noted are these: dose 0.5-3 µM, time 28.0 hrs, DDE = dose-dependent effect. Type of data set: functional, cell-based. On the technique in general: A western blot detects proteins with antibodies after separation by electrophoresis.

A short description of data set [7]: AUC (0 to infinity) in Sprague-Dawley rat plasma at 10 mg/kg, IG measured at 10 to 1440 mins by LC-MS/MS analysis. Type of data set: ADME, organism-based. Also on record: time lower 10 min, dose 10 mg/kg, time upper 1440 min, route ig. The conditions noted are these: po.
Data set [8] can be described thus: Cmax in Sprague-Dawley rat plasma at 10 mg/kg, IG measured at 10 to 1440 mins by LC-MS/MS analysis. Format: ADME, organism-based. Also on record: dose 10 mg/kg, time 10-1440 min, route ig. As to conditions: po.
Data set [9] can be described thus: Clearance in Sprague-Dawley rat plasma at 10 mg/kg, IG measured at 10 to 1440 mins by LC-MS/MS analysis. As to conditions: po, time 10-1440 min. Type of data set: ADME, organism-based.
The nature of data set [10]: Toxicity in sopolamine-induced cognitive impairment ICR mouse model assessed as morphological change in liver at 10 mg/kg, ip administered for 14 consecutive days followed by scopolmaine-stimulation measured on day 21 by H and E staining method. Type of data set: organism-based. As to conditions: in vivo, 504 h, time 21 day.
Data set [11] is described as follows: Toxicity in sopolamine-induced cognitive impairment ICR mouse model assessed as morphological change in spleen at 10 mg/kg, ip administered for 14 consecutive days followed by scopolmaine-stimulation measured on day 21 by H and E staining method. Type of data set: organism-based. The conditions noted are these: in vivo, 504 h, time 21 day.
Data set [12] is described as follows: Toxicity in sopolamine-induced cognitive impairment ICR mouse model assessed as morphological change in lung at 10 mg/kg, ip administered for 14 consecutive days followed by scopolmaine-stimulation measured on day 21 by H and E staining method. Format: organism-based. As to conditions: in vivo, 504 h, time 21 day.
A short description of data set [13]: Toxicity in sopolamine-induced cognitive impairment ICR mouse model assessed as morphological change in renal at 10 mg/kg, ip administered for 14 consecutive days followed by scopolmaine-stimulation measured on day 21 by H and E staining method. Type of data set: organism-based. As to conditions: in vivo, 504 h, time 21 day.

Chain of Acetylcholinesterase (O42275 whole entry): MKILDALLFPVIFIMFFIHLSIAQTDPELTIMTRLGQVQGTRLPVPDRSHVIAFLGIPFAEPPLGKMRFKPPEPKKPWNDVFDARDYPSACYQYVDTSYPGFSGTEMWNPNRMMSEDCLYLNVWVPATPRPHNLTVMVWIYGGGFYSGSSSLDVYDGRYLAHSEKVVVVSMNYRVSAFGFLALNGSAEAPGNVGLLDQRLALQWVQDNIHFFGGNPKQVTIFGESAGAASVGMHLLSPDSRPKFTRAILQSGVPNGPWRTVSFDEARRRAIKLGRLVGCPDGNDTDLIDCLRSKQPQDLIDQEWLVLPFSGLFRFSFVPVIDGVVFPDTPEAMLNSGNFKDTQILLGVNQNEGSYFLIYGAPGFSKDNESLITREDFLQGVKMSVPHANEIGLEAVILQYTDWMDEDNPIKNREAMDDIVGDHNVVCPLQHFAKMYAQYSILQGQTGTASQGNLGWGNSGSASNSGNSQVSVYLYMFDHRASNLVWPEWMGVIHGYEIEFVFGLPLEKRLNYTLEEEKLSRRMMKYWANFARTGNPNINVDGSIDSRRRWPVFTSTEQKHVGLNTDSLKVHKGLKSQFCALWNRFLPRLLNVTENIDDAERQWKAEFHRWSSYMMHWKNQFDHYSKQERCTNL

In turn, `CC1CCCCN1CCCOc1cc2c3c(nccc3c1)-c1ccccc1C2=O` (centres undefined) had an IC50 on Acetylcholinesterase of 45 nM. The Activity is 8.98% with PC-12 [1]; 6.09% in the data set with PC-12 [2]; 2.99% in the data set on PC-12 [3]; 4.81% with PC-12 [4]; 2.96% with PC-12 [5]; “Dde” with PC-12 [6]. For the same molecule, the Activity result in [10], in [11], in data set [12] and in [13] was “Non-Toxic” each time. Moreover, the AUC(0-inf) in data set [7] was found to be 841 ng·h/mL. In data set [8], the Cmax is 68.5 ng/mL. Besides, the CL/F in data set [9] amounted to 208 mL/min/kg.

As a reminder, the IC50 is the point on the concentration scale where inhibition reaches its midpoint. Read a high IC50 as weaker potency in that assay. For orientation: AUC(0-inf) means total exposure, with the tail of the curve extrapolated. Read a low AUC(0-inf) as low exposure. As usually defined, the Cmax is the highest concentration seen after dosing. In general, CL/F refers to clearance divided by bioavailability, as obtained after extravascular dosing.

Values taken from ChEMBL document CHEMBL5120794, “Development of 5-hydroxyl-1-azabenzanthrone derivatives as dual binding site and selective acetylcholinesterase inhibitors” (Eur J Med Chem, 2022).
